29 substances from patent publication US10092620B2, “Uses of cyclic peptides for treating and preventing atherosclerosis” (THE SCRIPPS RESEARCH INSTITUTE, priority 2013, dated 2018) can be followed below.

The subject of this assay is HDL in human plasma. The assay is described as follows: pre-beta HDL ELISA assay: remodeling HDL in human plasma in vitro. It is filed as biochemical. As to conditions: for Pre-beta HDL generated (normalized level): pre-beta HDL ELISA. On the procedure: First, various cyclic peptides, including the majority of compounds shown in FIG. 2, were assessed for activities for remodeling HDL in human plasma in vitro. Unlike western blot which was used to generate data shown in FIG. 2, here a pre-beta HDL ELISA assay was used to measure pre-beta HDL levels. Results from the assay are shown in Table 1, which lists the peptides in the order of their activities in remodeling HDL.
On the technique in general: An ELISA detects its analyte on a solid surface through an enzyme-linked reagent.

Non-standard residues stand in square brackets, D forms with d. Aoc(2) = CCCCCC[C@H](N)C(=O)O; dOrn = NCCC[C@@H](N)C(=O)O; Orn = NCCC[C@H](N)C(=O)O

As to “6 (cyclo(L[dW]L[dW]L[dR]K[dE]); SMILES CC(C)C[C@@H]1NC(=O)[C@@H](Cc2c[nH]c3ccccc23)NC(=O)[C@H](CC(C)C)NC(=O)[C@@H](Cc2c[nH]c3ccccc23)NC(=O)[C@H](CC(C)C)NC(=O)[C@@H](CCC(=O)O)NC(=O)[C@H](CCCCN)NC(=O)[C@@H](CCCNC(=N)N)NC1=O) [compound 6]”, the “Pre-beta HDL generated (normalized level)” value was 0.36.

On to “66 (cyclo([dW][benzyltyrosine][dK]N[dN]K[dK]K); ring closure inferred) [compound 66]”, for which the “Pre-beta HDL generated (normalized level)” value was determined as 0.10.

“67 (cyclo([dW][homoleucine][dW]R[dE]Q[dE]R); ring closure inferred) [compound 67]”: the “Pre-beta HDL generated (normalized level)” value came out at 0.08.

As to “79 (cyclo([dW]L[dK]S[dK]S[dK]S); SMILES CC(C)C[C@@H]1NC(=O)[C@@H](Cc2c[nH]c3ccccc23)NC(=O)[C@H](CO)NC(=O)[C@@H](CCCCN)NC(=O)[C@H](CO)NC(=O)[C@@H](CCCCN)NC(=O)[C@H](CO)NC(=O)[C@@H](CCCCN)NC1=O) [compound 79]”, the “Pre-beta HDL generated (normalized level)” value was determined as 0.01.

Turning to “71 (cyclo(WGWGW[dK]S[dOrn]); ring closure inferred) [compound 71]”, the “Pre-beta HDL generated (normalized level)” value was found to be 0.06.

“23 (cyclo([dW]L[dW]R[dE]N[dE][Orn]); SMILES CC(C)C[C@@H]1NC(=O)[C@@H](Cc2c[nH]c3ccccc23)NC(=O)[C@H](CCCN)NC(=O)[C@@H](CCC(=O)O)NC(=O)[C@H](CC(N)=O)NC(=O)[C@@H](CCC(=O)O)NC(=O)[C@H](CCCNC(=N)N)NC(=O)[C@@H](Cc2c[nH]c3ccccc23)NC1=O) [compound 23]”: the “Pre-beta HDL generated (normalized level)” value is on record as 0.16.

Take “16 (cyclo(Y[dW]E[dL]Y[dS]K[dQ]); also: 2nd residue stated as DL-residue) [compound 16]”: the “Pre-beta HDL generated (normalized level)” value was 0.09.

Consider “65 (cyclo([dY]G[dW]W[dN]N[dK]N); SMILES NCCCC[C@H]1NC(=O)[C@H](CC(N)=O)NC(=O)[C@@H](CC(N)=O)NC(=O)[C@H](Cc2c[nH]c3ccccc23)NC(=O)[C@@H](Cc2c[nH]c3ccccc23)NC(=O)CNC(=O)[C@@H](Cc2ccc(O)cc2)NC(=O)[C@H](CC(N)=O)NC1=O) [compound 65]”, for which the “Pre-beta HDL generated (normalized level)” value is given as 0.11.

In the case of “12 (cyclo([dW]L[dW]H[dE]N[dE]K); SMILES CC(C)C[C@@H]1NC(=O)[C@@H](Cc2c[nH]c3ccccc23)NC(=O)[C@H](CCCCN)NC(=O)[C@@H](CCC(=O)O)NC(=O)[C@H](CC(N)=O)NC(=O)[C@@H](CCC(=O)O)NC(=O)[C@H](Cc2c[nH]cn2)NC(=O)[C@@H](Cc2c[nH]c3ccccc23)NC1=O) [compound 12]”, the “Pre-beta HDL generated (normalized level)” value turned out to be 0.07.

“2 (cyclo([dW]L[dW]K[dD]Q[dE]K); SMILES CC(C)C[C@@H]1NC(=O)[C@@H](Cc2c[nH]c3ccccc23)NC(=O)[C@H](CCCCN)NC(=O)[C@@H](CCC(=O)O)NC(=O)[C@H](CCC(N)=O)NC(=O)[C@@H](CC(=O)O)NC(=O)[C@H](CCCCN)NC(=O)[C@@H](Cc2c[nH]c3ccccc23)NC1=O) [compound 2]”: the “Pre-beta HDL generated (normalized level)” value was found to be 0.10.

Consider “54 (cyclo([dW]L[dW]R[dE]Q[dE]R); SMILES CC(C)C[C@@H]1NC(=O)[C@@H](Cc2c[nH]c3ccccc23)NC(=O)[C@H](CCCNC(=N)N)NC(=O)[C@@H](CCC(=O)O)NC(=O)[C@H](CCC(N)=O)NC(=O)[C@@H](CCC(=O)O)NC(=O)[C@H](CCCNC(=N)N)NC(=O)[C@@H](Cc2c[nH]c3ccccc23)NC1=O) [compound 54]”, for which the “Pre-beta HDL generated (normalized level)” value came out at 0.46.

For the substance “c[WlWwkhkh] (cyclo(WIW[dW][dK][dH][dK][dH])) [SEQ ID NO:47]”, the “activity in generating pre-beta HDL (in words)” value is listed as “excellent activities in generating plasma pre-beta HDL”.

Take “19 (cyclo([dW]L[dW][Orn][dE]N[dE][Orn]); SMILES CC(C)C[C@@H]1NC(=O)[C@@H](Cc2c[nH]c3ccccc23)NC(=O)[C@H](CCCN)NC(=O)[C@@H](CCC(=O)O)NC(=O)[C@H](CC(N)=O)NC(=O)[C@@H](CCC(=O)O)NC(=O)[C@H](CCCN)NC(=O)[C@@H](Cc2c[nH]c3ccccc23)NC1=O) [compound 19]”: the “Pre-beta HDL generated (normalized level)” value is given as 0.36.

Consider “w(Aoc)wReQeR (cyclo([dW][Aoc(2)][dW]R[dE]Q[dE]R); ring closure inferred) [SEQ ID NO:31]”, for which the “Pre-beta HDL generated (normalized level)” value is on record as 0.04.

Regarding “24 (cyclo([dW]L[dW]H[dE]Q[dE]H); SMILES CC(C)C[C@@H]1NC(=O)[C@@H](Cc2c[nH]c3ccccc23)NC(=O)[C@H](Cc2c[nH]cn2)NC(=O)[C@@H](CCC(=O)O)NC(=O)[C@H](CCC(N)=O)NC(=O)[C@@H](CCC(=O)O)NC(=O)[C@H](Cc2c[nH]cn2)NC(=O)[C@@H](Cc2c[nH]c3ccccc23)NC1=O) [compound 24]”, the “Pre-beta HDL generated (normalized level)” value stood at 0.09.

For “62 (cyclo([dY]Y[dV]Y[dH]H); SMILES CC(C)[C@H]1NC(=O)[C@H](Cc2ccc(O)cc2)NC(=O)[C@@H](Cc2ccc(O)cc2)NC(=O)[C@H](Cc2c[nH]cn2)NC(=O)[C@@H](Cc2c[nH]cn2)NC(=O)[C@H](Cc2ccc(O)cc2)NC1=O) [compound 62]”, the “Pre-beta HDL generated (normalized level)” value is 0.17.

Consider “77 (cyclo(W[dF]E[dL]Y[dS]H[dOrn]); ring closure inferred) [compound 77]”, for which the “Pre-beta HDL generated (normalized level)” value is listed as 0.02.

“56 (cyclo([dF]F[dY]Y[dS]R[dK][Orn]); ring closure inferred) [compound 56]”: the “Pre-beta HDL generated (normalized level)” value is recorded as 0.31.

“20 (cyclo([dW]L[dL]E[dE]K[dK]N); SMILES CC(C)C[C@@H]1NC(=O)[C@@H](Cc2c[nH]c3ccccc23)NC(=O)[C@H](CC(N)=O)NC(=O)[C@@H](CCCCN)NC(=O)[C@H](CCCCN)NC(=O)[C@@H](CCC(=O)O)NC(=O)[C@H](CCC(=O)O)NC(=O)[C@@H](CC(C)C)NC1=O) [compound 20]”: the “Pre-beta HDL generated (normalized level)” value stood at 0.07.

In the case of “76 (cyclo([dL]W[dL]K[dK]K[dH]R); SMILES CC(C)C[C@H]1NC(=O)[C@H](CCCNC(=N)N)NC(=O)[C@@H](Cc2c[nH]cn2)NC(=O)[C@H](CCCCN)NC(=O)[C@@H](CCCCN)NC(=O)[C@H](CCCCN)NC(=O)[C@@H](CC(C)C)NC(=O)[C@H](Cc2c[nH]c3ccccc23)NC1=O) [compound 76]”, the “Pre-beta HDL generated (normalized level)” value amounted to 0.03.

Regarding “35 (cyclo([dW]L[dW]R[dE]Q[dE][Orn]); SMILES CC(C)C[C@@H]1NC(=O)[C@@H](Cc2c[nH]c3ccccc23)NC(=O)[C@H](CCCN)NC(=O)[C@@H](CCC(=O)O)NC(=O)[C@H](CCC(N)=O)NC(=O)[C@@H](CCC(=O)O)NC(=O)[C@H](CCCNC(=N)N)NC(=O)[C@@H](Cc2c[nH]c3ccccc23)NC1=O) [compound 35]”, the “Pre-beta HDL generated (normalized level)” value worked out at 0.02.

As to “72 (cyclo([dL]W[dK]H[dS]H[dK]K); SMILES CC(C)C[C@H]1NC(=O)[C@H](CCCCN)NC(=O)[C@@H](CCCCN)NC(=O)[C@H](Cc2c[nH]cn2)NC(=O)[C@@H](CO)NC(=O)[C@H](Cc2c[nH]cn2)NC(=O)[C@@H](CCCCN)NC(=O)[C@H](Cc2c[nH]c3ccccc23)NC1=O) [compound 72]”, the “Pre-beta HDL generated (normalized level)” value is listed as 0.04.

With “52 (cyclo([dW]F[dF]Y[dR]H[dH]S); SMILES N=C(N)NCCC[C@H]1NC(=O)[C@H](Cc2ccc(O)cc2)NC(=O)[C@@H](Cc2ccccc2)NC(=O)[C@H](Cc2ccccc2)NC(=O)[C@@H](Cc2c[nH]c3ccccc23)NC(=O)[C@H](CO)NC(=O)[C@@H](Cc2c[nH]cn2)NC(=O)[C@H](Cc2c[nH]cn2)NC1=O) [compound 52]”, the “Pre-beta HDL generated (normalized level)” value was determined as 0.52.

Take “13 (cyclo([dW]L[dW][Orn][dE]Q[dE][Orn]); SMILES CC(C)C[C@@H]1NC(=O)[C@@H](Cc2c[nH]c3ccccc23)NC(=O)[C@H](CCCN)NC(=O)[C@@H](CCC(=O)O)NC(=O)[C@H](CCC(N)=O)NC(=O)[C@@H](CCC(=O)O)NC(=O)[C@H](CCCN)NC(=O)[C@@H](Cc2c[nH]c3ccccc23)NC1=O) [compound 13]”: the “Pre-beta HDL generated (normalized level)” value is 0.46.

Regarding “26 (cyclo([dW]L[dL][dW]K[dD]D[dK]); not fully specified (residues 5, 7)) [compound 26]”, the “Pre-beta HDL generated (normalized level)” value stood at 0.36.

Turning to “5 (cyclo([dF]W[dW]Y[dQ]H[dH]Q); SMILES NC(=O)CC[C@@H]1NC(=O)[C@@H](Cc2c[nH]cn2)NC(=O)[C@H](Cc2c[nH]cn2)NC(=O)[C@@H](CCC(N)=O)NC(=O)[C@H](Cc2ccc(O)cc2)NC(=O)[C@@H](Cc2c[nH]c3ccccc23)NC(=O)[C@H](Cc2c[nH]c3ccccc23)NC(=O)[C@@H](Cc2ccccc2)NC1=O) [compound 5]”, the “Pre-beta HDL generated (normalized level)” value is 1.29.

As to “61 (cyclo([dY]A[dY]L[dK]H[dK]K); SMILES CC(C)C[C@@H]1NC(=O)[C@@H](Cc2ccc(O)cc2)NC(=O)[C@H](C)NC(=O)[C@@H](Cc2ccc(O)cc2)NC(=O)[C@H](CCCCN)NC(=O)[C@@H](CCCCN)NC(=O)[C@H](Cc2c[nH]cn2)NC(=O)[C@@H](CCCCN)NC1=O) [compound 61]”, the “Pre-beta HDL generated (normalized level)” value stood at 0.19.

As to “9 (cyclo([dW]L[dW]R[dD]N[dD]K); SMILES CC(C)C[C@@H]1NC(=O)[C@@H](Cc2c[nH]c3ccccc23)NC(=O)[C@H](CCCCN)NC(=O)[C@@H](CC(=O)O)NC(=O)[C@H](CC(N)=O)NC(=O)[C@@H](CC(=O)O)NC(=O)[C@H](CCCNC(=N)N)NC(=O)[C@@H](Cc2c[nH]c3ccccc23)NC1=O) [compound 9]”, the “Pre-beta HDL generated (normalized level)” value came to 0.47.

For “c[wLwKeNeK] (cyclo([dW]L[dW]K[dE]N[dE]K); SMILES CC(C)C[C@@H]1NC(=O)[C@@H](Cc2c[nH]c3ccccc23)NC(=O)[C@H](CCCCN)NC(=O)[C@@H](CCC(=O)O)NC(=O)[C@H](CC(N)=O)NC(=O)[C@@H](CCC(=O)O)NC(=O)[C@H](CCCCN)NC(=O)[C@@H](Cc2c[nH]c3ccccc23)NC1=O) [SEQ ID NO:11]”, the “Pre-beta HDL generated (normalized level)” value was 0.24.
